US9839614B2, “Nanoparticle and polymer formulations for thyroid hormone analogs, antagonists, and formulations and uses thereof” (NANOPHARMACEUTICALS LLC, priority 2009, dated 2017)
Where “and” joins values, the source holds several entries; their conditions need not be identical. Equal values may be shown once.

Experiments:
[1] = test system: chick chorioallantoic membrane (CAM) blood vessel branching; test: Chorioallantoic membrane (CAM) model of angiogenesis; type: in vivo; conditions: for ANGIOGENESIS INDEX: n = 8 per group; for effect on angiogenesis, representative illustrations (FIG. 23): in vivo
Description: In vivo neovascularization was examined by methods described previously. 9-12 Ten-day-old chick embryos were purchased from SPAFAS (Preston, Conn.) and incubated at 37° C. with 55% relative humidity. A hypodermic needle was used to make a small hole in the shell concealing the air sac, and a second hole was made on the broad side of the egg, directly over an avascular portion of the embryonic membrane that was identified by candling. A false air sac was created beneath the second hole by the application of negative pressure at the first hole, causing the CAM to separate from the shell. A window approximately 1.0 cm^2 was cut in the shell over the dropped CAM with a small-crafts grinding wheel (Dremel, division of Emerson Electric Co.), allowing direct access to the underlying CAM. […] Sterile disks of No. 1 filter paper (Whatman International) were pretreated with 3 mg/mL cortisone acetate and 1 mmol/L PTU and air dried under sterile conditions. Thyroid hormone, hormone analogs, FGF2 or control solvents, and inhibitors were then applied to the disks and the disks allowed to dry. The disks were then suspended in PBS and placed on growing CAMs. […] At 24 hours, the MAPK cascade inhibitor PD 98059 was also added to CAMs topically by means of the filter disks.
After incubation at 37° C. with 55% relative humidity for 3 days, the CAM tissue directly beneath each filter disk was resected from control and treated CAM samples. Tissues were washed 3× with PBS, placed in 35-mm Petri dishes (Nalge Nunc), and examined under an SV6 stereomicroscope (Zeiss) at X50 magnification. Digital images of CAM sections exposed to filters were collected using a 3-charge-coupled device color video camera system (Toshiba) and analyzed with Image-Pro software (Media Cybernetics). The number of vessel branch points contained in a circular region equal to the area of each filter disk were counted. One image was counted in each CAM preparation, and findings from 8 to 10 CAM preparations were analyzed for each treatment condition (thyroid hormone or analogs, FGF2, FGF2 antibody, PD 98059). In addition, each experiment was performed 3 times. The resulting angiogenesis index is the mean±SEM of new branch points.

[2] = test system: matrigel plug angiogenesis; test: Mouse matrigel model of angiogenesis (plug hemoglobin); type: in vivo, mice (C57BL/6NCr)
Description: Normal male mice (C57BL/6NCr) 6-8 weeks of age and weighing ˜20 g were purchased from Taconic farm. Animals were housed 4 per cage, in controlled conditions of temperature (20-24° C.); humidity (60-70%) and 12 hrs. light/dark cycle provided with food and water ad libitum. […] Aliquots of matrigel were placed into cold polypropylene tubes to prevent the matrigel from solidifying and the angiogenesis promoter added to matrigel with or without agonist. Mice were treated daily. Matrigel was subcutaneously injected as triple injection per animal at 100 μL/animal. At day 14 post plug implant all animals were killed in CO2 chamber and matrigel plugs were collected. Plug hemoglobin content was analyzed from three implants/mice (n=6 per group) to measure angiogenesis.
The matrigel plugs dissected from the mice were carefully stripped of any remaining peritoneum. The plugs were placed into 0.5 mL tube of ddH2O and homogenized for 5-10 min. […] Absorbance was read with a Microplate Manager ELISA reader at 540 nm. […] Hemoglobin concentration is a reflection of the number of blood vessels in the plugs.

[3] = 10 μg/matrigel plug, day 14, n = 6-7
[4] = T4 + antagonist, each 10 μg/matrigel plug
[5] = FGF (1.25 μg/ml) + Tetrac or analog at 10 μg/plug
[6] = FGF (1.25 μg/ml) + Tetrac or analog at 10 μg/plug, n = 8
[7] = FGF 100 ng + Tetrac or analog 10 μg/plug
[8] = FGF 100 ng + Tetrac or analog 10 μg/plug, n = 7-14

## CC(C)[Si](OC(=O)Cc1cc(I)c(Oc2cc(I)c(OCC3CO3)c(I)c2)c(I)c1)(C(C)C)C(C)C (stereo not drawn)
other
  melting point: 120 °C

## CC(C)[Si](OC(=O)C(Cc1cc(I)c(Oc2cc(I)c(OCC3CO3)c(I)c2)c(I)c1)NC(=O)OC(C)(C)C)(C(C)C)C(C)C (stereo not drawn) (hydrate or solvate)
other
  melting point: 109 °C

## CC(C)(C)OC(=O)NC(Cc1cc(I)c(Oc2cc(I)c(OCC3CO3)c(I)c2)c(I)c1)C(=O)OCC1CO1 (stereo not drawn) (hydrate or solvate) [T4 analog 14, Oxiran-2-ylmethyl-2-(tert-butoxycarbonylamino)-3-(4-(3,5-diiodo-4-(oxiran-2-ylmethoxy)phenoxy)-3,5-diiodophenyl)propanoate]
other
  melting point: 105 °C

## O=C(O)CCc1cc(I)c(Oc2ccc(O)cc2)c(I)c1 [DITPA, 3,5-diiodothyropropionic acid]
[1]; 0.01 uM
  ANGIOGENESIS INDEX: 133.0 ± 11.6
[1]; 0.1 uM
  ANGIOGENESIS INDEX: 167.3 ± 12.7
[1]; 0.2 mM
  ANGIOGENESIS INDEX: 117.9 ± 5.6

## Cc1cc(OCC(=O)O)cc(C)c1Cc1ccc(O)c(C(C)C)c1 [GC-1, 3,5-dimethyl-4-(4′-hydroxy-3′-isopropylbenzyl)-phenoxy acetic acid]
[1]; 0.01 uM
  ANGIOGENESIS INDEX: 169.6 ± 11.6
[1]; 0.1 uM
  ANGIOGENESIS INDEX: 152.7 ± 9.0

## O=C(O)C(Cc1cc(I)c(Oc2cc(I)c(O)c(I)c2)c(I)c1)NC(c1ccccc1)(c1ccccc1)c1ccccc1 (stereo not drawn) [PRIAB2]
[1]; 0.1 μM
  Branch pts ± SEM: 136.0 ± 18.1

## CNC(Cc1cc(I)c(Oc2cc(I)c(O)c(I)c2)c(I)c1)C(=O)O (stereo not drawn) [PRIAB6]
[1]; 0.1 μM
  Branch pts ± SEM: 136.2 ± 12.4

## CCNC(Cc1cc(I)c(Oc2cc(I)c(O)c(I)c2)c(I)c1)C(=O)O (stereo not drawn) [PRIAB12]
[1]; 0.1 μM
  Branch pts ± SEM: 121.7 ± 13.6

## CC(C)(C)OC(=O)NC(Cc1cc(I)c(Oc2cc(I)c(O)c(I)c2)c(I)c1)C(=O)O (stereo not drawn) [T4 analog 7, 2-[(Tert-butoxycarbonyl)amino]-3-[4-(4-hydroxy-3,5-diiodophenoxy)-3,5-diiodophenyl]propanoic acid]
[1]; 0.1 μM, before conjugation
  Branch pts ± SEM: 173 ± 9.9

## CNC(Cc1cc(I)c(Oc2cc(I)c(O)c(I)c2)c(I)c1)C(=O)[O-].O.O.[K+] (stereo not drawn) [T4 analog 10, Potassium 3-[4-(4-hydroxy-3,5-diiodophenoxy)-3,5-diiodophenyl]-2-(methylamino)propanoate dihydrate]
[1]; 0.1 μM
  Mean % of stimulation (comparing to PBS): 43.8 ± 6.5%
[1]; 0.1 μM, mean ± SEM, n = 8
  Mean Branch points: 105 ± 7
[2]; [3]
  Hemoglobin (mg/mL) ± SEM: 0.8 ± 0.2 mg/mL
[2]; 10 μg/matrigel plug, dihydrate
  Mean stimulation of angiogenesis (%): 87% and 87 ± 33%

## CCNC(Cc1cc(I)c(Oc2cc(I)c(O)c(I)c2)c(I)c1)C(=O)O (stereo not drawn) [T4 analog 11, 2-(Ethylamino)-3-[4-(4-hydroxy-3,5-diiodophenoxy)-3,5-diiodophenyl]propanoic acid]
[1]
  effect on angiogenesis, representative illustrations (FIG. 23): proangiogenesis effects

## CCNC(Cc1cc(I)c(Oc2cc(I)c(O)c(I)c2)c(I)c1)C(=O)OCC (stereo not drawn) [T4 analog 12, Ethyl-2-(ethylamino)-3-[4-(4-hydroxy-3,5-diiodophenoxy)-3,5-diiodophenyl]propanoate]
[1]; FGF (1.25 μg/ml) + 12 (0.1 μM)
  Mean Branch points: 46 ± 2
[1]; FGF (1.25 μg/ml) + 12 (0.1 μM), (inhibition)
  Mean % of stimulation (comparing to PBS): −37.9 ± 4 (inhibition) %
[1]
  effect on angiogenesis, representative illustrations (FIG. 23): anti-angiogenic
[2]; [4]
  Hemoglobin (mg/mL) ± SEM: 0.4 ± 0.1 mg/mL
  Mean inhibition of angiogenesis (%): 89 ± 11%

## CC(C)[Si](OC(=O)C(Cc1cc(I)c(Oc2cc(I)c(O)c(I)c2)c(I)c1)NC(=O)OC(C)(C)C)(C(C)C)C(C)C (stereo not drawn) [T4 analog 13, Triisopropylsilyl-2-(tert-butoxycarbonylamino)-3-(4-(4-hydroxy-3,5-diiodophenoxy)-3,5-diiodophenyl)propanoate]
[1]; 1 μM, mean ± SEM, n = 8
  Mean Branch points: 76 ± 7
[1]; [5]
  Mean % Inhibition: 44 ± 13%
[1]; [6]
  Mean Branch points: 105 ± 7
[1]; Gallus gallus, topical, 1 μM, read-out: Mean % of stimulation (comparing to PBS)
  change in vivo at 1 µM: 4.1 ± 6.5%
[2]; 10 μg/matrigel plug
  Mean stimulation of angiogenesis (%): 0 ± 17%
[2]; [3]
  Hemoglobin (mg/mL) ± SEM: 0.3 ± 0.1 mg/mL

## CC(C)(C)OC(=O)NC(Cc1cc(I)c(Oc2cc(I)c(OCC3CO3)c(I)c2)c(I)c1)C(=O)OCC1CO1 (stereo not drawn) [T4 analog 14, Oxiran-2-ylmethyl-2-(tert-butoxycarbonylamino)-3-(4-(3,5-diiodo-4-(oxiran-2-ylmethoxy)phenoxy)-3,5-diiodophenyl)propanoate]
[1]; 1 μM
  Mean % of stimulation (comparing to PBS): 56.2 ± 7.5%
[1]; 1 μM, mean ± SEM, n = 8
  Mean Branch points: 114 ± 11
[2]; 10 μg/matrigel plug
  Mean stimulation of angiogenesis (%): 0 ± 17%
[2]; [3]
  Hemoglobin (mg/mL) ± SEM: 0.3 ± 0.1 mg/mL

## CC(C)(C)OC(=O)Cc1cc(I)c(Oc2cc(I)c(O)c(I)c2)c(I)c1 [Tetrac analog 3, tert-Butyl-2-(4-(4-hydroxy-3,5-diiodophenoxy)-3,5-diiodophenyl)acetate]
[2]; [7]
  Mean inhibition of angiogenesis (%): 95 ± 14%

## O=C(Cc1cc(I)c(Oc2cc(I)c(O)c(I)c2)c(I)c1)NC1CCCCC1 [Tetrac analog 4, N-cyclohexyl-2-(4-(4-hydroxy-3,5-diiodophenoxy)-3,5-diiodophenyl)acetamide]
[1]; [5]
  Mean % Inhibition: 15 ± 8%
[1]; [6]
  Mean Branch points: 121 ± 4
[2]; [7]
  Mean inhibition of angiogenesis (%): 104 ± 12%
[2]; [8]
  Hemoglobin (mg/mL) ± SEM: 0.2 ± 0.1 mg/mL

## CC(C)[Si](OC(=O)Cc1cc(I)c(Oc2cc(I)c(O)c(I)c2)c(I)c1)(C(C)C)C(C)C [Tetrac analog 5, Triisopropylsilyl-2-(4-(4-hydroxy-3,5-diiodophenoxy)-3,5-diiodophenyl)acetate]
[1]; [5]
  Mean % Inhibition: 75 ± 19%
[1]; [6]
  Mean Branch points: 87 ± 11
other
  melting point: 146 °C
[2]; [7]
  Mean inhibition of angiogenesis (%): 104 ± 14%
[2]; [8]
  Hemoglobin (mg/mL) ± SEM: 0.2 ± 0.1 mg/mL

## O=C(Cc1cc(I)c(Oc2cc(I)c(OCC3CO3)c(I)c2)c(I)c1)NC1CCCCC1 (stereo not drawn) [Tetrac analog 6, N-cyclohexyl-2-(4-(3,5-diiodo-4-(oxiran-2-ylmethoxy)phenoxy)-3,5-diiodophenyl)acetamide]
other
  melting point: 242 °C
[2]; [7]
  Mean inhibition of angiogenesis (%): 80 ± 16%
[2]; [8]
  Hemoglobin (mg/mL) ± SEM: 0.7 ± 0.1 mg/mL

## O=C(Cc1cc(I)c(Oc2cc(I)c(OCC3CO3)c(I)c2)c(I)c1)OCC1CO1 (stereo not drawn) [Tetrac analog 8, Oxiran-2-ylmethyl-2-(4-(3,5-diiodo-4-(oxiran-2-ylmethoxy)phenoxy)-3,5-diiodophenyl)acetate]
other
  melting point: 116 °C

## O=C(Cc1cc(I)c(Oc2cc(I)c(OCCCl)c(I)c2)c(I)c1)NC1CCCCC1 [Tetrac analog 15, 2-(4-(4-(2-chloroethoxy)-3,5-diiodophenoxy)-3,5-diiodophenyl)-N-cyclohexylacetamide]
other
  melting point: 263 °C

## FGF2: human recombinant FGF2, standard proangiogenic agent
[1]; 1 uM
  ANGIOGENESIS INDEX: 155 ± 9
[1]; 1.25 μg/ml
  Branch pts ± SEM: 137.9 ± 7.5
[1]; FGF 1.25 μg/mL
  Mean % of stimulation (comparing to PBS): 78.1 ± 7.5%
  Mean Branch points: 130 ± 11
[1]; FGF2 (1 μg/mL)
  increase in angiogenesis / branch formation: 2.2 fold and 2 fold
[1]; FGF (1.25 μg/ml) alone
  Mean Branch points: 130 ± 11
[2]; FGF 100 ng alone
  Hemoglobin (mg/mL) ± SEM: 2.4 ± 0.4 mg/mL
